# Literature values as cited in article PMC9516332 (Frontiers in Oncology, 2022).
# Experiments:
# [1] = target: panel of 255 wild-type kinases (Homo sapiens, UniProt Q5VT25); conditions: MRCKα; 1 µmol/L single concentration; ref DOI: 10.1371/journal.pone.0092146; cited from earlier work
# [2] = target: T1, panel of 255 wild-type kinases (Homo sapiens, UniProt P42681); conditions: kinase TXK; 1 µmol/L single concentration; ref DOI: 10.1371/journal.pone.0092146; cited from earlier work
# T1 sequence (P42681 1-527): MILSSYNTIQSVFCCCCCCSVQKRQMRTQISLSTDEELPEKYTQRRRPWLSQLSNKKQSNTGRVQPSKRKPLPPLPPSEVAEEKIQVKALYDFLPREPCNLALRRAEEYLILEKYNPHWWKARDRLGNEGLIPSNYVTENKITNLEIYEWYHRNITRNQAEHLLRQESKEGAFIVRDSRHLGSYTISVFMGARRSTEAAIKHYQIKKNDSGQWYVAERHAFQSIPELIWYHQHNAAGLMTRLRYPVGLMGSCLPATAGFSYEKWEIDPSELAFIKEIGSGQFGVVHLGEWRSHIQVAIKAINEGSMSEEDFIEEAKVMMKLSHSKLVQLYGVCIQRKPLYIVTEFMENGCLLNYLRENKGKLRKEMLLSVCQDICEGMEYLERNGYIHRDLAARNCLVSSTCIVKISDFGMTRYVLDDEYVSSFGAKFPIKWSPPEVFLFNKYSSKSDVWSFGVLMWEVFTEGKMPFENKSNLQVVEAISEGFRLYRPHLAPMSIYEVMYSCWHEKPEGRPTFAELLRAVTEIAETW
# [3] = target: panel of 255 wild-type kinases (Homo sapiens, UniProt O96017); conditions: CHK2 kinase assay; 1 µmol/L single concentration; ref DOI: 10.1371/journal.pone.0092146; cited from earlier work
# [4] = target: panel of 255 wild-type kinases (Homo sapiens, UniProt Q8TDX7); conditions: NEK7; 1 µmol/L single concentration; ref DOI: 10.1371/journal.pone.0092146; cited from earlier work
# [5] = target: panel of 255 wild-type kinases (Homo sapiens, UniProt P48729); conditions: kinase CK1α; 1 µmol/L single concentration; ref DOI: 10.1371/journal.pone.0092146; cited from earlier work
# [6] = target: T2, panel of 255 wild-type kinases (Homo sapiens, UniProt Q9H093); conditions: NuaK2; 1 µmol/L single concentration; ref DOI: 10.1371/journal.pone.0092146; cited from earlier work
# T2 sequence (Q9H093 1-628): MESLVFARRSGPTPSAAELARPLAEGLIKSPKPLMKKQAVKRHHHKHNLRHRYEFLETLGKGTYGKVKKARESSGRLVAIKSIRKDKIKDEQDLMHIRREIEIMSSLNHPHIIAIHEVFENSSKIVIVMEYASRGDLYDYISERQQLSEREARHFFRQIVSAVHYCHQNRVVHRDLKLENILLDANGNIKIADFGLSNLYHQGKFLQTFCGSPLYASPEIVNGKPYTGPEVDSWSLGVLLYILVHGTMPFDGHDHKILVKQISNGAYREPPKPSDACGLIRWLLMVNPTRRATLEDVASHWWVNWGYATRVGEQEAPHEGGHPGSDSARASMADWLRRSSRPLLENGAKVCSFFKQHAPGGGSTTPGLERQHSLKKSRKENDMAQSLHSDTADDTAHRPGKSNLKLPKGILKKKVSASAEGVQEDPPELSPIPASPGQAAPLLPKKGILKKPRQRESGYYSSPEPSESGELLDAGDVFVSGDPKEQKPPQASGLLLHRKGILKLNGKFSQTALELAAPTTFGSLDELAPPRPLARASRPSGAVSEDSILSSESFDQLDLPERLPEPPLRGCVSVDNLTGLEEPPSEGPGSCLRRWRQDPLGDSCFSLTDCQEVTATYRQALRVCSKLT
# [7] = target: panel of 255 wild-type kinases (Homo sapiens, UniProt P24723); conditions: kinase PKCη; 1 µmol/L single concentration; ref DOI: 10.1371/journal.pone.0092146; cited from earlier work
# [8] = target: T3, panel of 255 wild-type kinases (Homo sapiens, UniProt Q8TF76); conditions: kinase Haspin; 1 µmol/L single concentration; ref DOI: 10.1371/journal.pone.0092146; cited from earlier work
# T3 sequence (Q8TF76 1-798): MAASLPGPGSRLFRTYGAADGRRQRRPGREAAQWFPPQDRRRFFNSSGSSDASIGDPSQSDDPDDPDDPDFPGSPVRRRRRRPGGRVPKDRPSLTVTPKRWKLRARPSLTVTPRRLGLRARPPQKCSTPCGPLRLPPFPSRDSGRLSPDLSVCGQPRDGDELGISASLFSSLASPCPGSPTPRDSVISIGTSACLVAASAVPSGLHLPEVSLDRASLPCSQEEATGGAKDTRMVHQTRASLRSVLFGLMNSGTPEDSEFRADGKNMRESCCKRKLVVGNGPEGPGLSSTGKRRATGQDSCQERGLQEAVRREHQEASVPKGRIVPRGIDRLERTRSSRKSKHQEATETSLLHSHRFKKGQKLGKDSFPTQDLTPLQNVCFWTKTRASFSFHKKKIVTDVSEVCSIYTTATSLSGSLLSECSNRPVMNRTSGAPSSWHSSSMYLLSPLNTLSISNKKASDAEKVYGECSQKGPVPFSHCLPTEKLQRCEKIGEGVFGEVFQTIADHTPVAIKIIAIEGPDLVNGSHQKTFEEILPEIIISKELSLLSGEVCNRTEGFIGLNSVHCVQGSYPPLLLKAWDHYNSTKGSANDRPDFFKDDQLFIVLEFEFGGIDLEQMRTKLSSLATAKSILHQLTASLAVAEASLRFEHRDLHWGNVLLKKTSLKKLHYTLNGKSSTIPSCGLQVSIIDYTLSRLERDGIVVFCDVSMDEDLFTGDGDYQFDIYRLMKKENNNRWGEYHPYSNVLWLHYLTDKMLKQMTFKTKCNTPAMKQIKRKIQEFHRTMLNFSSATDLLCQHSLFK
# [9] = target: panel of 255 wild-type kinases (Homo sapiens, UniProt Q9Y2H1); conditions: NDR2; 1 µmol/L single concentration; ref DOI: 10.1371/journal.pone.0092146; cited from earlier work
compound,measurement,setting,value
C[C@@H](Oc1cc(-c2cnn(C3CCNCC3)c2)cnc1N)c1c(Cl)ccc(F)c1Cl [crizotinib],"%-inhibition, MRCKα",[1],-8%
same,"%-inhibition at 1 µmol/L, TXK",[2],39%
same,%-inhibition CHK2,[3],9%
same,"%-inhibition, NEK7",[4],-5.3%
same,"%-inhibition at 1 µmol/L, CK1α",[5],-1.36%
same,"%-inhibition, NuaK2",[6],87%
same,"%-inhibition at 1 µmol/L, PKCη",[7],-8%
same,"%-inhibition at 1 µmol/L, Haspin",[8],7%
same,"%-inhibition, NDR2",[9],-4.76%
